From US20260274794A1, “COMPOUNDS, COMPOSITIONS, AND METHOD OF INHIBITING TAU PROTEIN AND ALPHASYNUCLEIN AGGREGATION” (Purdue Research Foundation, priority 2023, published 2026) come the findings set out here.

In data set [1] the target is T1, α-synuclein (α-syn) (Homo sapiens, UniProt P37840).
T1 construct: purchased rPeptide, LLC (Watkinsville, GA)
The experiment in a line: Thioflavin T (ThT) fluorescence assay of α-syn fibril formation. Type of data set: biochemical. Particulars: compound 100 μM; ThT fluorescence intensity at plateau phase, control = 100%. The procedure:
ThT fluorescence is routinely established assay to follow the kinetics of α-syn fibril formation with different drug candidate treatments. Compounds were first tested at a final of concentration of 100 μM and α-syn and 2N4R tau were prepared at 2 μM and 6 μM, respectively. Compounds with highest anti-fibrillary activity were tested at 3.125, 6.25, 12.5, 25, 50, and 100 μM to obtain dose-response curves.
For the α-syn ThT assay, ThT was used at a final concentration of 20 μM. α-Syn was dissolved in 20 mM Tris-HCl (pH 7.4) supplemented with 100 mM NaCl to a stock solution of 280 μM (1 mg/250 μL) prior to resuspension in ThT buffer to obtain a final concentration of 2 μM. Compounds and ThT were first added to the wells. The kinetics of fibril formation begin when the α-syn was solubilized in the ThT buffer (10 mM PBS buffer (pH 7.4), supplemented with 0.5 mM SDS and 300 mM NaCl) and added to a non-treated black 96 well microplate with a transparent flat bottom. Each well was filled with a maximum volume of 150 μL buffer with one 3 mm borosilicate bead. The background fluorescence signal consisted of ThT in buffer and 0.25% DMSO without α-syn. The excitation and emission wavelengths were set at 440 and 485 nm, respectively, with a Synergy HT multi-mode microplate reader (BioTek, Winooski, VT). Measurements were taken at 37° C. every 20 minutes over 50 hours of shaking prior to reading the plate. Samples were measured in three replicates and the experiments were repeated three times using different α-syn stock solutions. For each time point, the background fluorescence signal was subtracted. Arbitrary units of fluorescence were calculated from the mean values normalized against the maximum value in each completed assay. Arbitrarily, the maximum value (100%) for the fluorescence intensity was established for α-syn.
Compounds were tested at 100 μM with α-syn at 6 μM, resulting in a molar ratio of approximately 1:16 (protein:compound). The plateau phase of sigmoidal kinetics is of particular interest because it is the phase in which mature fibrils form and where aggregation and disaggregation are at equilibrium with each other; therefore, the fluorescence intensity between multiple compounds at the plateau phase can be compared to identify the compounds with the most promising anti-aggregation activity (Table 1, column α-syn ThT %). […] Compound 17 was the best representative of the 5-aminoindole series and moved to the tier-2 assays, even though the resulting ThT percentage of fluorescence intensity was 10% higher than the cut off. These compounds were then tested on tau 2N4R ThT fluorescence assays.

For data set [2], the target named is α-syn (Homo sapiens, UniProt P37840). Briefly: Western blot (anti-oligo A11, anti-α-syn) of uncross-linked α-syn. Type of data set: biochemical. As to conditions: compound 600 μM, α-syn 60 μM, 37° C., 24 hours. The procedure: To validate the PICUP results, the uncross linked α-syn (produced in Dr. Rochet lab) was incubated at a final concentration of 60 μM in 10 mM phosphate buffer (pH 7.4) with the presence of vehicle (1.5% DMSO), the amide compounds of interest (Compounds 2, 8, 17), and the weak anti-fibrillization inhibitor (compound 13). Compounds were tested at a final concentration of 600 μM (molar ratio 1:10). Samples were incubated for 24 h and 48 h with constant shaking 300 rpm at 37° C. (VWR Thermal Shake Touch, Troemner, LLC, Thorofare, NJ). After completion of the incubation time, samples were mixed with one third volume of above-mentioned loading buffer and separated by electrophoresis in a 16% SDS-Page gel. […] Nitrocellulose membranes were exposed to the monoclonal antibodies diluted at 1/1000 using a 5% non-fat dried milk with TBS and 0.1% Tween-20 (TBS-T) for 12 h at 4° C. Peroxidase conjugated secondary antibodies consisted of an anti-rabbit (Rockland Immunochemicals, inc., Pottstown, PA, cat. #611-1322-0100) and an anti-mouse (Rockland, cat. #610-1319-0100) utilized at a dilution of 1/5000 in 5% non-fat dried milk with TBS-T for one hour at room temperature. The membranes were then exposed to a 1:1 ratio of enhanced chemiluminescent solution (Thermo Scientific, Rockford, IL, cat. #32209) for one minute before the acquisition of images using a SynGene G;Box scanner (model Chemi XR 5 and the G:Box Chemi-XRQ GENESYS software.
One limitation of the PICUP is the generation of free radicals which can be quenched by aromatic compounds resulting in false positives. For this reason, results obtained by PICUP were validated using the uncross-linked α-syn. High concentration of different compounds (600 μM; molar ratio of 1:10) were incubated at 37° C. for 24 hours with 60 μM of α-syn and separated by electrophoresis in 16% SDS-PAGE gels. Western blots using polyclonal anti-oligo A11 and monoclonal anti-α-syn were assessed to detect the high molecular weight oligomers and monomeric α-syn, respectively.
(A western blot detects proteins with antibodies after separation by electrophoresis.)

Data set [3] is described as follows: Kinetics of solubility in ThT buffer. Type of data set: physicochemical. Particulars: ThT buffer: 1×PBS pH 7.4, 300 mM NaCl, 0.5 mM SDS. The method, then: Kinetics of solubility analysis was performed at the MSU Medicinal Chemistry Core facility.

Each structure is given as a SMILES string. Bounds are passed on as bounds.

The term remaining activity denotes the activity still measured, relative to the control. Regarding `O=C(Nc1ccc2[nH]ccc2c1)c1ccccc1Cl` [Compound 13, 2-chloro-N-(1H-indol-5-yl)benzamide], in data set [1], the remaining activity at 100 µM stood at 73.7 ± 5.6%. For the same compound, the “oligomeric species bands of uncross-linked α-syn (Western blot)” value (from here on “oligomeric species bands”) in data set [2] is “did not reduce the intensity of the bands”. Moreover, the “Measured Solubility” value in data set [3] is more than 300 µM.

For `O=C(Nc1cccc2[nH]ccc12)c1ccc(F)cc1` [Compound 8, 4-fluoro-N-(1H-indol-4-yl)benzamide], the remaining activity at 100 µM in data set [1] is not above 30%. Also, the “oligomeric species bands” value in data set [2] is given as “narrow, less intense bands compared to control”. Besides, in data set [3], the “Measured Solubility” value is more than 300 µM.

On to `O=C(Nc1cccc2[nH]ccc12)c1ccccc1` [Compound 2, N-(1H-indol-4-yl)benzamide], for which the remaining activity at 100 µM in data set [1] is not above 30%. Also, the “oligomeric species bands” value in data set [2] is listed as “narrow, less intense bands compared to control”. In addition, the “Measured Solubility” value in data set [3] was more than 300 µM.
